Assay results as given in PubChem BioAssay AID248 (DTP/NCI, 2004).
Where “and” joins values, the source holds several entries; their conditions need not be identical. Equal entries are not always repeated. Toxic doses and inconclusive results are not listed. Rule as the data show it: active = T/C of 150% or more; inactive = T/C below 125%.

System: L1210 leukemia ip in BDF1 mice, survival T/C
Test: NCI In Vivo Anticancer Drug Screen. Data for tumor model L1210 Leukemia (intraperitoneal) in B6D2F1 (BDF1) mice
Conditions: endpoint: mean survival time, higher = longer survival
Method in brief: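 Survival endpoint. Drug-treated group vs vehicle group, expressed as T divided by C. Tumor passaged by transplantation.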

[1] = dose: 100.0 mg/kg/injection, schedule: Q01DX001 (ip), vehicle: carboxymethylcellulose (CMC)
[2] = dose: 400.0 mg/kg/injection, schedule: Q01DX001 (ip), vehicle: carboxymethylcellulose (CMC)
[3] = dose: 100.0 mg/kg/injection, schedule: Q01DX001 (ip), vehicle: saline with Tween-80
[4] = dose: 200.0 mg/kg/injection, schedule: Q01DX001 (ip), vehicle: saline with Tween-80
[5] = dose: 50.0 mg/kg/injection, schedule: Q01DX009 (ip), vehicle: Klucel (hydroxypropylcellulose) (HPC)
[6] = dose: 100.0 mg/kg/injection, schedule: Q01DX009 (ip), vehicle: Klucel (hydroxypropylcellulose) (HPC)
[7] = dose: 200.0 mg/kg/injection, schedule: Q01DX009 (ip), vehicle: Klucel (hydroxypropylcellulose) (HPC)
[8] = dose: 100.0 mg/kg/injection, schedule: Q01DX001 (ip), vehicle: saline
[9] = dose: 200.0 mg/kg/injection, schedule: Q01DX001 (ip), vehicle: saline
[10] = dose: 100.0 mg/kg/injection, schedule: Q04DX003 (ip), vehicle: saline with Tween-80
[11] = dose: 200.0 mg/kg/injection, schedule: Q04DX003 (ip), vehicle: saline with Tween-80
[12] = dose: 400.0 mg/kg/injection, schedule: Q04DX003 (ip), vehicle: saline with Tween-80
[13] = dose: 100.0 mg/kg/injection, schedule: Q04DX003 (ip), vehicle: Klucel (hydroxypropylcellulose) (HPC)
[14] = dose: 200.0 mg/kg/injection, schedule: Q04DX003 (ip), vehicle: Klucel (hydroxypropylcellulose) (HPC)
[15] = dose: 100.0 mg/kg/injection, schedule: Q01DX009 (ip), vehicle: saline
[16] = dose: 100.0 mg/kg/injection, schedule: Q04DX002 (ip), vehicle: saline
[17] = dose: 200.0 mg/kg/injection, schedule: Q04DX002 (ip), vehicle: saline
[18] = dose: 200.0 mg/kg/injection, schedule: Q01DX001 (ip), vehicle: carboxymethylcellulose (CMC)
[19] = dose: 100.0 mg/kg/injection, schedule: Q01DX009 (ip), vehicle: saline with Tween-80
[20] = dose: 200.0 mg/kg/injection, schedule: Q01DX009 (ip), vehicle: saline with Tween-80
[21] = dose: 400.0 mg/kg/injection, schedule: Q01DX009 (ip), vehicle: saline with Tween-80
[22] = dose: 100.0 mg/kg/injection, schedule: Q04DX003 (ip), vehicle: saline
[23] = dose: 200.0 mg/kg/injection, schedule: Q04DX003 (ip), vehicle: saline

Measured: T/C

O=C1c2ccccc2C(C2c3ccccc3C(=O)c3ccccc32)c2ccccc21
inactive: dose: 50.0 mg/kg/injection, schedule: Q01DX001 (ip), vehicle: carboxymethylcellulose (CMC) 89 % of control | [1] 89 % of control | [2] 86 % of control

CCCn1c(=O)cc(/C=N/Nc2ccc([N+](=O)[O-])cc2[N+](=O)[O-])c2ccccc21
inactive: [3] 90 % of control | [4] 90 % of control | dose: 400.0 mg/kg/injection, schedule: Q01DX001 (ip), vehicle: saline with Tween-80 90 % of control

O=C(OCCBr)c1ccc([N+](=O)[O-])cc1
inactive: [5] 100 % of control | [6] 106 % of control | [7] 97 % of control

O=C(CCCC(=O)NNC(=O)Nc1cccc(S(=O)(=O)F)c1)NNC(=O)Nc1cccc(S(=O)(=O)F)c1
inactive: dose: 50.0 mg/kg/injection, schedule: Q01DX001 (ip), vehicle: saline 106 % of control | [8] 112 % of control | [9] 96 % of control | dose: 400.0 mg/kg/injection, schedule: Q01DX001 (ip), vehicle: saline 112 % of control

CCC(C(=O)c1ccc(F)cc1)C(O)(C(F)(F)F)C(F)(F)F (centres undefined)
inactive: [10] 104 % of control | [11] 103 % of control | [12] 101 % of control

c1ccc(-c2cc(-c3ccccc3)n(-c3ccccc3)c2)cc1
inactive: [3] 87 % of control | [4] 89 % of control

Cc1ccc(C(=O)/C=C\c2ccc(Cl)cc2Cl)cc1
inactive: [13] 92 % of control | [14] 100 % of control | dose: 400.0 mg/kg/injection, schedule: Q04DX003 (ip), vehicle: Klucel (hydroxypropylcellulose) (HPC) 92 % of control

CCC1([N+](=O)[O-])COCOC1
inactive: dose: 6.25 mg/kg/injection, schedule: Q04DX003 (ip), vehicle: Klucel (hydroxypropylcellulose) (HPC) 96 % of control | dose: 12.5 mg/kg/injection, schedule: Q04DX003 (ip), vehicle: Klucel (hydroxypropylcellulose) (HPC) 111 % of control | dose: 25.0 mg/kg/injection, schedule: Q04DX003 (ip), vehicle: Klucel (hydroxypropylcellulose) (HPC) 96 % of control and 111 % of control

C=CCSC(=S)SCc1cccc(Cl)c1
inactive: [15] 101 % of control | [16] 100 % of control | dose: 200.0 mg/kg/injection, schedule: Q01DX009 (ip), vehicle: saline 101 % of control | [17] 100 % of control | dose: 400.0 mg/kg/injection, schedule: Q01DX009 (ip), vehicle: saline 99 % of control | dose: 400.0 mg/kg/injection, schedule: Q04DX002 (ip), vehicle: saline 97 % of control

CNc1ncnc2nn(C)c(C#N)c12
inactive: dose: 50.0 mg/kg/injection, schedule: Q04DX002 (ip), vehicle: saline 106 % of control | [16] 95 % of control | [17] 103 % of control

COc1ccc(C2C(c3ccccc3)C=CC(c3ccccc3)C2[N+](=O)[O-])cc1OC (centres undefined)
inactive: [1] 94 % of control | [18] 110 % of control | [2] 94 % of control

CC(C)C1(C)C(=O)N(C)C(=O)N1Br (centres undefined)
inactive: [5] 102 % of control | dose: 50.0 mg/kg/injection, schedule: Q04DX003 (ip), vehicle: Klucel (hydroxypropylcellulose) (HPC) 100 % of control | dose: 100.0 mg/kg/injection, schedule: Q01DX001 (ip), vehicle: Klucel (hydroxypropylcellulose) (HPC) 107 % of control | [6] 96 % of control | [13] 97 % of control | dose: 200.0 mg/kg/injection, schedule: Q01DX001 (ip), vehicle: Klucel (hydroxypropylcellulose) (HPC) 98 % of control | [14] 105 % of control | dose: 400.0 mg/kg/injection, schedule: Q01DX001 (ip), vehicle: Klucel (hydroxypropylcellulose) (HPC) 98 % of control

Nc1ccc2c(c1)Cc1cc(NC=O)ccc1-2
inactive: [1] 101 % of control | [18] 97 % of control | [2] 92 % of control

COC(=O)CCCCCCCCC(C)c1ccc(C(C)=O)cc1 (centres undefined)
inactive: [19] 95 % of control | [10] 99 % of control | [20] 87 % of control | [11] 95 % of control | [21] 96 % of control | [12] 89 % of control

O=C(CCCCCCCCC(=O)NCCBr)NCCBr
inactive: dose: 100.0 mg/kg/injection, schedule: Q01DX005 (ip), vehicle: Klucel (hydroxypropylcellulose) (HPC) 98 % of control | dose: 100.0 mg/kg/injection, schedule: Q04DX002 (ip), vehicle: Klucel (hydroxypropylcellulose) (HPC) 104 % of control | dose: 200.0 mg/kg/injection, schedule: Q01DX005 (ip), vehicle: Klucel (hydroxypropylcellulose) (HPC) 94 % of control | dose: 200.0 mg/kg/injection, schedule: Q04DX002 (ip), vehicle: Klucel (hydroxypropylcellulose) (HPC) 101 % of control | dose: 400.0 mg/kg/injection, schedule: Q01DX005 (ip), vehicle: Klucel (hydroxypropylcellulose) (HPC) 102 % of control | dose: 400.0 mg/kg/injection, schedule: Q04DX002 (ip), vehicle: Klucel (hydroxypropylcellulose) (HPC) 101 % of control

CC(=O)COc1ccccc1NC(C)=O
inactive: [19] 101 % of control | [20] 106 % of control | [21] 109 % of control

NC(N)=NNC(=S)S
inactive: dose: 25.0 mg/kg/injection, schedule: Q01DX009 (ip), vehicle: saline with Tween-80 102 % of control | dose: 50.0 mg/kg/injection, schedule: Q01DX009 (ip), vehicle: saline with Tween-80 110 % of control | dose: 50.0 mg/kg/injection, schedule: Q04DX003 (ip), vehicle: saline with Tween-80 95 % of control | [10] 92 % of control

O=C1OC(=O)C2C3C=CC(C12)C1C3C1N1C(=O)CCC1=O (centres undefined)
inactive: dose: 50.0 mg/kg/injection, schedule: Q04DX003 (ip), vehicle: acetone 96 % of control | dose: 100.0 mg/kg/injection, schedule: Q04DX003 (ip), vehicle: acetone 88 % of control | dose: 200.0 mg/kg/injection, schedule: Q04DX003 (ip), vehicle: acetone 95 % of control

CC(C)c1ccc(/C=N\[N+](C)(C)C)cc1
inactive: [22] 101 % of control | [23] 95 % of control

CC(=O)NC(C(=O)O)(C(=O)O)C(C)c1c[nH]c2ccccc12 (centres undefined)
inactive: [10] 95 % of control | [11] 90 % of control | [12] 95 % of control

CCN(CC)CC(=O)NCC(CCN1CCOCC1)(CC(C)C)c1cccc2ccccc12 (centres undefined)
inactive: dose: 50.0 mg/kg/injection, schedule: Q01DX009 (ip), vehicle: saline 111 % of control | [15] 105 % of control | [22] 96 % of control | [23] 97 % of control

O=C(N/N=C\c1c(Cl)cccc1Cl)N/N=C/c1c(Cl)cccc1Cl
inactive: dose: 100.0 mg/kg/injection, schedule: Q04DX002 (ip), vehicle: saline with Tween-80 89 % of control | dose: 200.0 mg/kg/injection, schedule: Q04DX002 (ip), vehicle: saline with Tween-80 99 % of control | dose: 400.0 mg/kg/injection, schedule: Q04DX002 (ip), vehicle: saline with Tween-80 95 % of control

Cn1c(=O)c(=O)n(C)c2cc(Cl)c(Cl)cc21
inactive: [1] 94 % of control | [18] 105 % of control

CC1CCCCN1C(=O)Nc1ccc(Cl)cc1[N+](=O)[O-] (centres undefined)
inactive: [6] 100 % of control | [7] 91 % of control | dose: 400.0 mg/kg/injection, schedule: Q01DX009 (ip), vehicle: Klucel (hydroxypropylcellulose) (HPC) 92 % of control

CC1=CC2C(O)(CC(CO)=CC3C4C(C)(C)C4(O)C(O)C(C)C32O)C1=O (centres undefined)
inactive: dose: 50.0 mg/kg/injection, schedule: Q01DX001 (ip), vehicle: saline sonified 112 % of control | dose: 100.0 mg/kg/injection, schedule: Q01DX001 (ip), vehicle: saline sonified 101 % of control | dose: 200.0 mg/kg/injection, schedule: Q01DX001 (ip), vehicle: saline sonified 91 % of control

Cc1cc(C)c2[nH]c(=O)c(Br)c(C)c2c1
inactive: dose: 100.0 mg/kg/injection, schedule: Q01DX001 (ip), vehicle: other 93 % of control | dose: 200.0 mg/kg/injection, schedule: Q01DX001 (ip), vehicle: other 98 % of control | dose: 400.0 mg/kg/injection, schedule: Q01DX001 (ip), vehicle: other 106 % of control

COc1ccc(N(C)CC(O)CN)cc1 (centres undefined)
inactive: [8] 108 % of control | [9] 104 % of control
